In patent US20240116985A1, “STAPLED PEPTIDES AND METHODS THEREOF” (priority 2020, published 2024) one finds IC50 data, which are given here for ten compounds.

The target in assay [1] is T1, full-length beta-Catenin (Uniprot ID P35222) (Homo sapiens, UniProt P35222).
T1 construct: 10 nM full-length beta-Catenin (Uniprot ID P35222)
T1 sequence (P35222 1-781): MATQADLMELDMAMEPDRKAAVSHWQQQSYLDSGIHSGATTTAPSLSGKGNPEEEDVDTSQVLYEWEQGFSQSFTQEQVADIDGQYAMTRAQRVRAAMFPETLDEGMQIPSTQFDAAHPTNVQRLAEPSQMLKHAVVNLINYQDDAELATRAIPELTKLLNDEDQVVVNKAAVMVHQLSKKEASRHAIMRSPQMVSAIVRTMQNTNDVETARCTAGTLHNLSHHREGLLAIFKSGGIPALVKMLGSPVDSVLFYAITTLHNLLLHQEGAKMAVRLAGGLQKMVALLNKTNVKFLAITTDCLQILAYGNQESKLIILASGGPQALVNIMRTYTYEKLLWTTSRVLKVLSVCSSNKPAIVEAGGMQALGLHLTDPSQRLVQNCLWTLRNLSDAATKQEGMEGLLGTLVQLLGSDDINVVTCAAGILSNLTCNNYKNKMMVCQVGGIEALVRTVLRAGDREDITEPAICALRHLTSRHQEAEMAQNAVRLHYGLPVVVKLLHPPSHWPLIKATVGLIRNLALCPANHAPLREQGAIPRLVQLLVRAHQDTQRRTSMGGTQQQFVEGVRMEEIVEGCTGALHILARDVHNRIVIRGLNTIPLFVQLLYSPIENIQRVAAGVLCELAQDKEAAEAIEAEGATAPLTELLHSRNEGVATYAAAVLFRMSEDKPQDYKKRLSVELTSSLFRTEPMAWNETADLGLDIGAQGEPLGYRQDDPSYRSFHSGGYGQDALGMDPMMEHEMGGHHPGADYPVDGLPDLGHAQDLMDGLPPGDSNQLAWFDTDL
Briefly: Fluorescence polarization IC50 (beta-catenin / 5FAM-TCF4 10-53 competition). It counts as binding. The settings on record: fluorescence polarization; read-out: beta-Catenin FP IC50.

Assay [2] concerns the target T2, beta-catenin/TCF4 engagement (Homo sapiens, UniProt P35222).
T2 construct: expressed in transfected cells; host or cells: HEK293
T2 sequence (P35222 1-781): T1 sequence (P35222 1-781)
Briefly: Nano-BRET target engagement assay (B-cat-Halo & TCF4-Luc in HEK293 cells). It counts as cell-based. The settings on record: read-out: NanoBRET Abs IC50. On the technique in general: BRET reads energy transfer from a luciferase to a nearby fluorophore.

The term IC50 denotes the concentration that gives 50% inhibition. With `CC(=O)N1CCC[C@]12CC=CCCCC1(CCCC=CCCCOC(=O)N3CC[C@@](C(=O)N[C@@H](Cc4ccsc4)C(=O)N[C@@H](Cc4csc5ccccc45)C(=O)N[C@@H](CCC(N)=O)C(N)=O)(C3)NC(=O)[C@H](CC(C)C)NC(=O)[C@H](Cc3ccccc3)NC(=O)[C@H](C)NC(=O)[C@H](C)NC(=O)[C@H](CCn3cc(CCC(=O)O)nn3)NC(=O)[C@H](CC(=O)O)NC1=O)NC(=O)[C@H](CC(C)(C)C)NC(=O)[C@H](CC(=O)O)NC2=O` (stereo partly drawn) [I-2076, Ac-PL3-Asp-Npg-B5-Asp-[CH2CH2CO2H]TriAzDab-Ala-Ala-Phe-Leu-PyrS2-3Thi-BztA-Gln-NH2], the IC50 is 16 nM in assay [1] and 14100 nM in assay [2].
In the case of `CC(=O)N1CCC[C@]12CC=CCCCC1(CCCC=CCCCOC(=O)N3CC[C@@](C(=O)N[C@@H](Cc4ccsc4)C(=O)N[C@@H](Cc4csc5ccccc45)C(=O)N[C@@H](CCC(N)=O)C(N)=O)(C3)NC(=O)[C@H](CC(C)C)NC(=O)[C@H](Cc3ccccc3)NC(=O)[C@H](C)NC(=O)[C@H](C)NC(=O)[C@H](CCn3cc(CC(=O)O)nn3)NC(=O)[C@H](CC(=O)O)NC1=O)NC(=O)[C@H](CC(C)(C)C)NC(=O)[C@H](CC(=O)O)NC2=O` (stereo partly drawn) [I-2078, Ac-PL3-Asp-Npg-B5-Asp-[CH2CO2H]TriAzDab-Ala-Ala-Phe-Leu-PyrS2-3Thi-BztA-Gln-NH2], the IC50 in assay [1] was determined as 5 nM; in assay [2], 11700 nM.
The corresponding values for `CC(=O)N1CCC[C@]12CC=CCCCC1(CCCC=CCCCOC(=O)N3CC[C@@](C(=O)N[C@@H](Cc4ccsc4)C(=O)N[C@@H](Cc4csc5ccccc45)C(=O)N[C@@H](CCC(N)=O)C(N)=O)(C3)NC(=O)[C@H](CC(C)C)NC(=O)[C@H](Cc3ccccc3)NC(=O)[C@H](C)NC(=O)[C@H](C)NC(=O)[C@H](CCn3cc(C(C)(C)C(=O)O)nn3)NC(=O)[C@H](CC(=O)O)NC1=O)NC(=O)[C@H](CC(C)(C)C)NC(=O)[C@H](CC(=O)O)NC2=O` (stereo partly drawn) [I-2079, Ac-PL3-Asp-Npg-B5-Asp-[CMe2CO2H]TriAzDab-Ala-Ala-Phe-Leu-PyrS2-3Thi-BztA-Gln-NH2] are 8 nM and 15100 nM.
Take `CC(=O)N1CCC[C@]12CC=CCCCC1(CCCC=CCCCOC(=O)N3CC[C@@](C(=O)N[C@@H](Cc4ccsc4)C(=O)N[C@@H](Cc4csc5ccccc45)C(=O)N[C@@H](CCC(N)=O)C(N)=O)(C3)NC(=O)[C@H](CC(C)C)NC(=O)[C@H](Cc3ccccc3)NC(=O)[C@H](C)NC(=O)[C@H](C)NC(=O)[C@H](CCn3cc(-c4ccccc4C(=O)O)nn3)NC(=O)[C@H](CC(=O)O)NC1=O)NC(=O)[C@H](CC(C)(C)C)NC(=O)[C@H](CC(=O)O)NC2=O` (stereo partly drawn) [I-2080, Ac-PL3-Asp-Npg-B5-Asp-[2COOHPh]TriAzDab-Ala-Ala-Phe-Leu-PyrS2-3Thi-BztA-Gln-NH2]: the IC50 in assay [1] came out at 45 nM; in assay [2], 28800 nM.
The like results for `CC(=O)N1CCC[C@]12CC=CCCCC1(CCCC=CCCCOC(=O)N3CC[C@@](C(=O)N[C@@H](Cc4ccsc4)C(=O)N[C@@H](Cc4csc5ccccc45)C(=O)N[C@@H](CCC(N)=O)C(N)=O)(C3)NC(=O)[C@H](CC(C)C)NC(=O)[C@H](Cc3ccccc3)NC(=O)[C@H](C)NC(=O)[C@H](C)NC(=O)[C@H](CCn3cc(-c4ccccc4C(=O)O)nn3)NC(=O)[C@H](CC(=O)O)NC1=O)NC(=O)[C@H](CC(C)(C)C)NC(=O)[C@H](CC(=O)O)NC2=O` (stereo partly drawn) [I-2081, Ac-PL3-Asp-Npg-B5-Asp-[2COOHPh]TriAzDab-Ala-Ala-Phe-Leu-PyrS2-3Thi-BztA-Gln-NH2] were, in that order, 13 nM and 11600 nM.
The corresponding values for `CC(=O)N1CCC[C@]12CC=CCCCC1(CCCC=CCCCOC(=O)N3CC[C@@](C(=O)N[C@@H](Cc4ccsc4)C(=O)N[C@@H](Cc4csc5ccccc45)C(=O)N[C@@H](CCC(N)=O)C(N)=O)(C3)NC(=O)[C@H](CC(C)C)NC(=O)[C@H](Cc3ccccc3)NC(=O)[C@H](C)NC(=O)[C@H](C)NC(=O)[C@H](Cn3cc(CCC(=O)O)nn3)NC(=O)[C@H](CC(=O)O)NC1=O)NC(=O)[C@H](CC(C)(C)C)NC(=O)[C@H](CC(=O)O)NC2=O` (stereo partly drawn) [I-2082, Ac-PL3-Asp-Npg-B5-Asp-[CH2CH2CO2H]TriAzDap-Ala-Ala-Phe-Leu-PyrS2-3Thi-BztA-Gln-NH2] are 5 nM and 7700 nM.
The like results for `CC(=O)N1CCC[C@]12CC=CCCCC1(CCCC=CCCCOC(=O)N3CC[C@@](C(=O)N[C@@H](Cc4ccsc4)C(=O)N[C@@H](Cc4csc5ccccc45)C(=O)N[C@@H](CCC(N)=O)C(N)=O)(C3)NC(=O)[C@H](CC(C)C)NC(=O)[C@H](Cc3ccccc3)NC(=O)[C@H](C)NC(=O)[C@H](C)NC(=O)[C@H](Cn3cc(CC(C)(C)C(=O)O)nn3)NC(=O)[C@H](CC(=O)O)NC1=O)NC(=O)[C@H](CC(C)(C)C)NC(=O)[C@H](CC(=O)O)NC2=O` (stereo partly drawn) [I-2083, Ac-PL3-Asp-Npg-B5-Asp-[CH2CMe2CO2H]TriAzDap-Ala-Ala-Phe-Leu-PyrS2-3Thi-BztA-Gln-NH2] were, in that order, 5 nM and 3700 nM.
Consider `CC(=O)N1CCC[C@]12CC=CCCCC1(CCCC=CCCCOC(=O)N3CC[C@@](C(=O)N[C@@H](Cc4ccsc4)C(=O)N[C@@H](Cc4csc5ccccc45)C(=O)N[C@@H](CCC(N)=O)C(N)=O)(C3)NC(=O)[C@H](CC(C)C)NC(=O)[C@H](Cc3ccccc3)NC(=O)[C@H](C)NC(=O)[C@H](C)NC(=O)[C@H](Cn3cc(C(C)(C)C(=O)O)nn3)NC(=O)[C@H](CC(=O)O)NC1=O)NC(=O)[C@H](CC(C)(C)C)NC(=O)[C@H](CC(=O)O)NC2=O` (stereo partly drawn) [I-2085, Ac-PL3-Asp-Npg-B5-Asp-[CMe2CO2H]TriAzDap-Ala-Ala-Phe-Leu-PyrS2-3Thi-BztA-Gln-NH2], for which the figures for the IC50 in assay [1] and in assay [2] were 5 nM and 6200 nM, respectively.
In the case of `CC(=O)N1CCC[C@]12CC=CCCCC1(CCCC=CCCCOC(=O)N3CC[C@@](C(=O)N[C@@H](Cc4ccsc4)C(=O)N[C@@H](Cc4csc5ccccc45)C(=O)N[C@@H](CCC(N)=O)C(N)=O)(C3)NC(=O)[C@H](CC(C)C)NC(=O)[C@H](Cc3ccccc3)NC(=O)[C@H](C)NC(=O)[C@H](C)NC(=O)[C@H](Cn3cc(-c4ccccc4C(=O)O)nn3)NC(=O)[C@H](CC(=O)O)NC1=O)NC(=O)[C@H](CC(C)(C)C)NC(=O)[C@H](CC(=O)O)NC2=O` (stereo partly drawn) [I-2086, Ac-PL3-Asp-Npg-B5-Asp-[2COOHPh]TriAzDap-Ala-Ala-Phe-Leu-PyrS2-3Thi-BztA-Gln-NH2], the values for the IC50 in assay [1] and in assay [2] were 12 nM and 16400 nM, respectively.
The corresponding values for `CC(=O)N1CCC[C@]12CC=CCCCC1(CCCC=CCCCOC(=O)N3CC[C@@](C(=O)N[C@@H](Cc4ccsc4)C(=O)N[C@@H](Cc4csc5ccccc45)C(=O)N[C@@H](CCC(N)=O)C(N)=O)(C3)NC(=O)[C@H](CC(C)C)NC(=O)[C@H](Cc3ccccc3)NC(=O)[C@H](C)NC(=O)[C@H](C)NC(=O)[C@H](CNc3ccc(N)cc3C(=O)O)NC(=O)[C@H](CC(=O)O)NC1=O)NC(=O)[C@H](CC(C)(C)C)NC(=O)[C@H](CC(=O)O)NC2=O` (stereo partly drawn) [I-2087, Ac-PL3-Asp-Npg-B5-Asp-[2COOH4NH2Ph]Dap-Ala-Ala-Phe-Leu-PyrS2-3Thi-BztA-Gln-NH2] are 26 nM and 6500 nM.
